# Legend:
# [1] = system: metastatic (BB3RC31) PDX cells; experiment: Secondary tumor formation of cells from PDX tumors treated in vivo; design: species or system mice; settings: 90 days post-implantation; for tumor-initiating capacity in secondary mouse hosts: cells from PDX tumors treated in vivo
# Description: (§1) Tamoxifen citrate (Sigma, T9262, 10 mg/kg/day) and RO4929097 (Cellagen Technology, 3 mg/kg/day) were administered by oral gavage (0.1 ml/dose) on a five day from seven basis (weekends excluded) for fourteen days. Tamoxifen citrate and RO4929097 were prepared in 1% carboxymethylcellulose (Sigma, C9481) dissolved in distilled water. Fulvestrant (kindly provided by Astrazeneca, 200 mg/kg/week) was administered by subcutaneous injection (0.1 ml/dose) on a weekly basis for fourteen days. The HBC×22 and HBC×34 tamoxifen-resistant PDXs have been established by our collaborators in the Curie Institute (Cottu el al, 2014) and were treated for fourteen days in the presence or absence of the gamma-secretase inhibitor RO4929097 (10 mg/kg/day, oral gavage). Xenografts were collected in ice cold DMEM media for live cell assays, histological analysis and RNA and protein extraction. Patient-derived xenograft single cell suspension was obtained using a collagenase-hyaluronidase mixture for digestion (Stem Cell Technologies).
# (§2) To determine tumor initiation capacity of MCF-7 cells or metastatic (BB3RC31) PDX cells treated in vitro or in vivo, respectively, Nude or NSG mice were injected subcutaneously with cells in mammosphere media mixed 1:1 with Matrigel. 8 μg/ml of 17-beta estradiol was administered in drinking water or 90-day slow release estrogen pellets were implanted sub-cutaneously into mice two days before cell injection (0.72 mg, Innovative Research of America). Serial limiting dilution implantation of MCF-7 cells (10.000, 1.000, 100, 10 cells) and the Extreme Limiting Dilution Analysis (ELDA) software (The Walter and Eliza Hall Institute of Medical Research) were used to perform calculations (95% CI) of tumor initiation. Positive tumor growth was assessed at day 60 or 90 after cell injection by determining the mice bearing a tumor greater than 100 mm^3 and is represented as mice positive for growth/mice tested (n=4 per condition in all experiments). p values were calculated with Chi-squared test.
# [2] = system: Notch target genes HEY1 and HES1; experiment: HEY1 and HES1 expression by real-time PCR in PDX tumors treated in vivo; design: species or system mice; settings: PDX tumors treated in vivo 2 weeks
# Description: as §1, with “Xenografts were collected in ice cold DMEM media for live cell assays, histological analysis and RNA and protein extraction. Patient-derived xenograft single cell suspension was obtained using a collagenase-hyaluronidase mixture for digestion (Stem Cell Technologies).” left out
# Total RNA was extracted using the RNeasy Plus Mini Kit (QIAGEN, 74104) and the concentration and purity determined using an ND-1000 spectrophotometer (NanoDrop Technologies). […] Quantitative real-time PCR reactions were set up in triplicate in 384-well plates and performed on the 7900 PCR machine (Applied Biosystems) using TaqMan® Universal PCR Master Mix (Applied Biosystems) and probes from Universal Probe Library (Roche). […] The expression levels were calculated using the ΔΔCt method and normalised to the housekeeping genes 36B4 and GAPDH. […]
# NOTCH4-ICD and JAG1 [3] = experiment: NOTCH4-ICD and JAG1 Western Blot in MCF-7 cells; assay type: cell-based, human; settings: short term treatment of MCF-7 cells in vitro
# Description: MCF7, T47D and ZR-75-1 cell lines were purchased from American Tissue Culture Collection (ATCC) and cultured in DMEM/F-12, GlutaMAX (Gibco) with 10% FBS (Gibco). Cells were treated for 3 days or 6 days with ethanol (control), 10^-6M 4-OH-tamoxifen or 10^−7M fulvestrant and/or with 10 μM of gamma-secretase inhibitor RO4929097 (Cellagen Technology) or DMSO (control).
# Proteins were extracted with Protein Lysis Buffer (25 mM HEPES, 50 mM NaCl, 30 mM NaPP, 50 mM NaF, 1% Triton-X-100, 10% Glycerol, 5 mM EDTA, Protease Inhibitor cocktail, 1 μM PMSF). Lysates were placed on a rotator for 1 hour at 4° C., then were centrifuged at 10000 g at 4° C. for 10 min, and supernatants were collected. Protein concentrations were assessed using the BCA Protein Assay Kit (Thermo Scientific, 23225). Proteins were separated on a 10% gel (Biorad, 456-1033) by SDS-PAGE at 200V for 1 hour, and then were transferred on polyvinylidene difluoride (PVDF) membranes (BioRad, 170-4157) at 25 V/1,300 mA for 15 min using a Trans Blot Turbo (BioRad, 170-4155). Membranes were blocked in a solution of PBS containing 0.05% Tween-20 and 5% skimmed milk (Marvel) for 1 h at room temperature and primary antibodies were incubated overnight at 4° C. […]
# MCF-7 cells = experiment: In vivo tumor initiation of pre-treated MCF-7 cells (limiting dilution, ELDA); design: species or system mice; settings: for in vivo tumor initiation capacity: 6 days in vitro pre-treatment, 100,000 MCF-7 cells, Nude mice, day 90; for enrichment in tumor-initiating cell frequency (ELDA): MCF-7 pre-treated six days, limiting dilution in NSG mice, day 60
# Description: as §2, with “Serial limiting dilution implantation of MCF-7 cells (10.000, 1.000, 100, 10 cells) and the Extreme Limiting Dilution Analysis (ELDA) software (The Walter and Eliza Hall Institute of Medical Research) were used to perform calculations (95% CI) of tumor initiation.” left out
# NOTCH4-ICD and JAG1 [4] = experiment: NOTCH4-ICD and JAG1 Western Blot in PDX treated in vivo; design: species or system mice; settings: 14 day window treatment of PDXs in vivo
# Description: as §1
# Proteins were extracted with Protein Lysis Buffer (25 mM HEPES, 50 mM NaCl, 30 mM NaPP, 50 mM NaF, 1% Triton-X-100, 10% Glycerol, 5 mM EDTA, Protease Inhibitor cocktail, 1 μM PMSF). […] Protein concentrations were assessed using the BCA Protein Assay Kit (Thermo Scientific, 23225). […]
Compound,tumor-initiating capacity in secondary mouse hosts [1],HEY1 and HES1 expression [2],NOTCH4-ICD and JAG1 protein expression (NOTCH4-ICD and JAG1 [3]),in vivo tumor initiation capacity (MCF-7 cells),enrichment in tumor-initiating cell frequency (ELDA) (MCF-7 cells),NOTCH4-ICD and JAG1 protein expression (NOTCH4-ICD and JAG1 [4]),stimulation of tumorigenicity following in vivo tamoxifen and fulvestrant treatment ([1]; combination with RO4929097),enrichment in tumor-initiating cell frequency following tamoxifen or fulvestrant pre-treatment (MCF-7 cells; co-treatment with RO4929097 10 μM)
"CC/C(=C(\c1ccccc1)c1ccc(OCCN(C)C)cc1)c1ccccc1 [tamoxifen, (Z)-2-[4-(1,2-diphenylbut-1-enyl)phenoxy]-N,N-dimethylethanamine]",stimulation of tumorigenicity,increased,up-regulated,enriched,11 fold,up-regulated,–,–
C[C@]12CC[C@@H]3c4ccc(O)cc4C[C@@H](CCCCCCCCC[S+]([O-])CCCC(F)(F)C(F)(F)F)[C@H]3[C@@H]1CC[C@@H]2O (stereo partly drawn) [fulvestrant],stimulation of tumorigenicity,increased,up-regulated,enriched,11 fold,up-regulated,–,–
CC(C)(C(=O)NCC(F)(F)C(F)(F)F)C(=O)N[C@@H]1C(=O)Nc2ccccc2-c2ccccc21 [RO4929097],significantly reduced,–,–,–,–,–,completely reversed,reversed

# Reference: patent US20160376659A1, “Breast Cancer Biomarker” (The University of Manchester, priority 2015, published 2016)
